Reference: PubChem BioAssay AID1963424 (Molecular Pharmacology Branch, DTP, NCI, 2024)
“And” between values parts separate entries of the source, which are not always exact repeats. Equal values may be shown once.

System: 327498-153-R-J2-PDC complex spheroid growth, % test/control
Assay: Anticancer human tumor 327498-153-R-J2-PDC patient-derived uterine carcinosarcoma cell line growth inhibition [Asc]
Conditions: for viability, T/C: stronger effect = lower value; active means viability on the fitted dose curve at most 10% of control; inactive means the rest
Method in brief: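 Complex solid-tumor spheroids incorporating human endothelial and mesenchymal stem cells received single agents or combinations over half-log dilution ranges anchored to clinical Cmax.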

[1] = curve of first compound, second compound 0.1 µM
[2] = curve of first compound, second compound 0.316 µM
[3] = curve of first compound, second compound 1 µM
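Further: spheroids exposed to compound for 7 days after 3 days of growth.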
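Wherever viability, T/C is given: 100% = DMSO vehicle control wells.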

CCN1C(C(=O)NC23CCC(C(=O)O)(CC2)CC3)C(c2cccc(Cl)c2F)C2(C(=O)Nc3cc(Cl)ccc32)C12CCCCC2 (stereo not drawn) + CNC(C)C(=O)NC1CN(S(=O)(=O)c2cccc(S(=O)(=O)N3CCC4CCC(C(=O)NC(c5ccccc5)c5ccccc5)N4C(=O)C(NC(=O)C(C)NC)C3)c2)CCC2CCC(C(=O)NC(c3ccccc3)c3ccccc3)N2C1=O
active: viability, T/C (second compound 0.01 µM, first compound 0.949 µM) 8.7% | viability, T/C (second compound 0.01 µM, first compound 3 µM) 3.12% | viability, T/C (second compound 0.0316 µM, first compound 0.949 µM) 7.36% | viability, T/C (second compound 0.0316 µM, first compound 3 µM) 1.14% | viability, T/C (second compound 0.1 µM, first compound 3 µM) 1.93% | viability, T/C (second compound 0.316 µM, first compound 3 µM) 5.81% | viability, T/C (second compound 1 µM, first compound 0.949 µM) 4.68% | viability, T/C (second compound 1 µM, first compound 3 µM) 1.29%
193 nM: IC50 (curve of first compound, second compound 0.01 µM)
151 nM: IC50 (curve of first compound, second compound 0.0316 µM)
inactive: viability, T/C (second compound 0.01 µM, first compound 0.00949 µM) 88.1% | viability, T/C (second compound 0.01 µM, first compound 0.03 µM) 90.9% | viability, T/C (second compound 0.01 µM, first compound 0.0949 µM) 72.2% | viability, T/C (second compound 0.01 µM, first compound 0.3 µM) 35.9% | viability, T/C (second compound 0.0316 µM, first compound 0.00949 µM) 90.8% | viability, T/C (second compound 0.0316 µM, first compound 0.03 µM) 83.9% | viability, T/C (second compound 0.0316 µM, first compound 0.0949 µM) 62% | viability, T/C (second compound 0.0316 µM, first compound 0.3 µM) 32.4% | viability, T/C (second compound 0.1 µM, first compound 0.00949 µM) 97.8% | viability, T/C (second compound 0.1 µM, first compound 0.03 µM) 87.8% | viability, T/C (second compound 0.1 µM, first compound 0.0949 µM) 67.2% | viability, T/C (second compound 0.1 µM, first compound 0.3 µM) 35.1% | viability, T/C (second compound 0.1 µM, first compound 0.949 µM) 9.87% | viability, T/C (second compound 0.316 µM, first compound 0.00949 µM) 101% | viability, T/C (second compound 0.316 µM, first compound 0.03 µM) 89.7% | viability, T/C (second compound 0.316 µM, first compound 0.0949 µM) 67.1% | viability, T/C (second compound 0.316 µM, first compound 0.3 µM) 35.8% | viability, T/C (second compound 0.316 µM, first compound 0.949 µM) 9.28% | viability, T/C (second compound 1 µM, first compound 0.00949 µM) 100% | viability, T/C (second compound 1 µM, first compound 0.03 µM) 82.1% | viability, T/C (second compound 1 µM, first compound 0.0949 µM) 64.8% | viability, T/C (second compound 1 µM, first compound 0.3 µM) 32.3%
150 nM: IC50 [3]
173 nM: IC50 [1] | IC50 [2]

O=C(c1cc(Cc2n[nH]c(=O)c3ccccc23)ccc1F)N1CCN(C(=O)C2CC2)CC1 + CCN1C(C(=O)NC23CCC(C(=O)O)(CC2)CC3)C(c2cccc(Cl)c2F)C2(C(=O)Nc3cc(Cl)ccc32)C12CCCCC2
active: viability, T/C (second compound 0.03 µM, first compound 10 µM) 9.54% | viability, T/C (second compound 0.0949 µM, first compound 10 µM) 5.01% | viability, T/C (second compound 0.3 µM, first compound 3.16 µM) 5.47% | viability, T/C (second compound 0.3 µM, first compound 10 µM) 3.11% | viability, T/C (second compound 0.949 µM, first compound 0.0316 µM) 9.62% | viability, T/C (second compound 0.949 µM, first compound 0.1 µM) 5.99% | viability, T/C (second compound 0.949 µM, first compound 0.316 µM) 4.91% | viability, T/C (second compound 0.949 µM, first compound 1 µM) 4.88% | viability, T/C (second compound 0.949 µM, first compound 3.16 µM) 3.33% | viability, T/C (second compound 0.949 µM, first compound 10 µM) 2.8% | viability, T/C (second compound 3 µM, first compound 0.0316 µM) 2.94% | viability, T/C (second compound 3 µM, first compound 0.1 µM) 3.36% | viability, T/C (second compound 3 µM, first compound 0.316 µM) 2.53% | viability, T/C (second compound 3 µM, first compound 1 µM) 3.39% | viability, T/C (second compound 3 µM, first compound 3.16 µM) 2.26% | viability, T/C (second compound 3 µM, first compound 10 µM) 2.33%
< 31.6 nM: IC50 (curve of first compound, second compound 0.3 µM) | IC50 (curve of first compound, second compound 0.949 µM) | IC50 (curve of first compound, second compound 3 µM)
592 nM: IC50 (curve of first compound, second compound 0.0949 µM)
inactive: viability, T/C (second compound 0.03 µM, first compound 0.0316 µM) 94.9% | viability, T/C (second compound 0.03 µM, first compound 0.1 µM) 83.6% | viability, T/C (second compound 0.03 µM, first compound 0.316 µM) 80.9% | viability, T/C (second compound 0.03 µM, first compound 1 µM) 63.6% | viability, T/C (second compound 0.03 µM, first compound 3.16 µM) 35% | viability, T/C (second compound 0.0949 µM, first compound 0.0316 µM) 74.5% | viability, T/C (second compound 0.0949 µM, first compound 0.1 µM) 63% | viability, T/C (second compound 0.0949 µM, first compound 0.316 µM) 61% | viability, T/C (second compound 0.0949 µM, first compound 1 µM) 42.8% | viability, T/C (second compound 0.0949 µM, first compound 3.16 µM) 14.8% | viability, T/C (second compound 0.3 µM, first compound 0.0316 µM) 33.6% | viability, T/C (second compound 0.3 µM, first compound 0.1 µM) 29.5% | viability, T/C (second compound 0.3 µM, first compound 0.316 µM) 20.9% | viability, T/C (second compound 0.3 µM, first compound 1 µM) 17.4%
1720 nM: IC50 (curve of first compound, second compound 0.03 µM)

C=CC(=O)N1CCN(c2nc(=O)n(-c3c(C)ccnc3C(C)C)c3nc(-c4c(O)cccc4F)c(F)cc23)C(C)C1 (stereo not drawn) + Cc1c(S(C)(=O)=O)c(-c2cc(F)cc(N3CCN(c4ccc(NS(=O)(=O)c5ccc(NC(CCN6CCC(C(=O)OCCCP(=O)(O)O)CC6)CSc6ccccc6)c(S(=O)(=O)C(F)(F)F)c5)cc4)CC3)c2)c(-c2ccc(Cl)cc2)n1C(C)C
inactive: viability, T/C (second compound 0.1 µM, first compound 0.0316 µM) 78.9% | viability, T/C (second compound 0.1 µM, first compound 0.1 µM) 68.5% | viability, T/C (second compound 0.1 µM, first compound 0.316 µM) 66.7% | viability, T/C (second compound 0.1 µM, first compound 1 µM) 69.5% | viability, T/C (second compound 0.1 µM, first compound 3.16 µM) 63.4% | viability, T/C (second compound 0.1 µM, first compound 10 µM) 64.8% | viability, T/C (second compound 0.316 µM, first compound 0.0316 µM) 73.5% | viability, T/C (second compound 0.316 µM, first compound 0.1 µM) 71.6% | viability, T/C (second compound 0.316 µM, first compound 0.316 µM) 62.4% | viability, T/C (second compound 0.316 µM, first compound 1 µM) 63.2% | viability, T/C (second compound 0.316 µM, first compound 3.16 µM) 60.2% | viability, T/C (second compound 0.316 µM, first compound 10 µM) 56.4% | viability, T/C (second compound 1 µM, first compound 0.0316 µM) 83.2% | viability, T/C (second compound 1 µM, first compound 0.1 µM) 71.9% | viability, T/C (second compound 1 µM, first compound 0.316 µM) 60.7% | viability, T/C (second compound 1 µM, first compound 1 µM) 71.2% | viability, T/C (second compound 1 µM, first compound 3.16 µM) 62.1% | viability, T/C (second compound 1 µM, first compound 10 µM) 64.7% | viability, T/C (second compound 3.16 µM, first compound 0.0316 µM) 84.6% | viability, T/C (second compound 3.16 µM, first compound 0.1 µM) 72.4% | viability, T/C (second compound 3.16 µM, first compound 0.316 µM) 62.4% | viability, T/C (second compound 3.16 µM, first compound 1 µM) 67.4% | viability, T/C (second compound 3.16 µM, first compound 3.16 µM) 65.4% | viability, T/C (second compound 3.16 µM, first compound 10 µM) 48.3% | viability, T/C (second compound 10 µM, first compound 0.0316 µM) 179% | viability, T/C (second compound 10 µM, first compound 0.1 µM) 164% | viability, T/C (second compound 10 µM, first compound 0.316 µM) 164% | viability, T/C (second compound 10 µM, first compound 1 µM) 136% | viability, T/C (second compound 10 µM, first compound 3.16 µM) 167% | viability, T/C (second compound 10 µM, first compound 10 µM) 151%
> 10000 nM: IC50 [1] | IC50 [2] | IC50 [3] | IC50 (curve of first compound, second compound 3.16 µM) | IC50 (curve of first compound, second compound 10 µM)

CCN1C(C(=O)NC23CCC(C(=O)O)(CC2)CC3)C(c2cccc(Cl)c2F)C2(C(=O)Nc3cc(Cl)ccc32)C12CCCCC2 (stereo not drawn)
174 nM and 252 nM: IC50 (curve of compound)
11.1% [middle of 15 runs]: viability, T/C (compound 0.949 µM)
211 nM [middle of 13 runs]: IC50 (compound alone, run of 09/27/2022)
active: viability, T/C (compound 3 µM) 4% [middle of 15 runs]
inactive: viability, T/C (compound 0.00949 µM) 90.4% and 97.6% | viability, T/C (compound 0.03 µM) 88.7% [middle of 15 runs] | viability, T/C (compound 0.0949 µM) 74.7% [middle of 15 runs] | viability, T/C (compound 0.3 µM) 40.5% [middle of 15 runs]
